# Measurements reported in patent US10611778B2, “Fused bicyclic inhibitors of menin-MLL interaction” (Janssen Pharmaceutica NV, priority 2016, dated 2020).
# Tests used:
# MV-4-11 = test: Proliferation assay (spheroid assay) MV-4-11; type: cell-based, human; conditions: Homo sapiens, MV4-11, MV-4-11; averaged values over all measurements; read-out: Spheroid assay MV-4-11 (IC50)
# Procedure: The anti-proliferative effect of menin/MLL protein/protein interaction inhibitor test compounds was assessed in human leukemia cell lines. The cell lines MV-4-11 and MOLM14 harbor MLL translocations and express the MLL fusion proteins MLL-AF4 and MLL-AF9, respectively, as well as the wildtype protein from the second allele. […] K562 and KG1 were used as a control cell lines containing two MLL wildtype alleles in order to exclude compounds that display general cytotoxic effects.
# MV-4-11 and MOLM14 were cultured in RPMI-1640 (Sigma Aldrich) supplemented with 10% fetal bovine serum (HyClone), 2 mM L-glutamine (Sigma Aldrich) and 50 μg/ml gentamycin (Gibco). K562 were propagated in RPMI-1640 (Sigma Aldrich) supplemented with 20% fetal bovine serum (HyClone), 2 mM L-glutamine (Sigma Aldrich) and 50 μg/ml gentamycin (Gibco). KG1 were cultured in Iscove's MDM (Gibco) supplemented with 20% fetal bovine serum (HyClone), 2 mM L-glutamine (Sigma Aldrich) and 50 μg/ml gentamycin (Gibco).
# In order to assess the anti-proliferative effects, 1,500 MV-4-11, 300 MOLM14, 750 K562 or 1,300 KG1 cells were seeded in 200 μl media per well in 96-well round bottom, ultra-low attachment plates (Costar, catalogue number 7007). Cell seeding numbers were chosen based on growth curves to ensure linear growth throughout the experiment. Test compounds were added at different concentrations and the DMSO content was normalized to 0.3%. Cells were incubated for 8 d at 37° C. and 5% CO2. Spheroid like growth was monitored in real-time by live-cell imaging (IncuCyteZOOM, Essenbio, 4× objective) acquiring one image every four hours for 8 d. Confluence (%) as a measure of spheroid size was determined using an integrated analysis tool.
# In order to determine the cumulative effect of the test compounds over time, the area under the curve (AUC) in a plot of confluence against time was calculated. Confluence at the beginning of the experiment (t=0) was used as baseline for the AUC calculation.
# Absolute IC50 values were calculated according to the following procedure: % Control=(AUC sample/AUC control)*100
# AUC control=mean AUC of control values (cells without compound/DMSO as vehicle control)
# A non-linear curve fit was applied using the least squares (ordinary) fit method to the plot of % control versus compound concentration. Based on this, the absolute IC50 value (half maximal inhibitory concentration of the test compound causing an anti-proliferative effect of 50% relative to the vehicle control) was calculated.
# [1] = target: T1, Menin/MLL (terbium chelate-labeled menin, FITC-MBM1 peptide) (Homo sapiens, UniProt O00255, T541A); test: Menin/MLL homogenous time-resolved fluorescence (HTRF) assay; type: binding; conditions: averaged values over all measurements; read-out: Menin HTRF assay (IC50)
# T1 construct: Menin (a.a. 1-610-6×his tag) was labeled with terbium cryptate as follows
# T1 sequence (O00255 with tags, fused parts or gaps T541A): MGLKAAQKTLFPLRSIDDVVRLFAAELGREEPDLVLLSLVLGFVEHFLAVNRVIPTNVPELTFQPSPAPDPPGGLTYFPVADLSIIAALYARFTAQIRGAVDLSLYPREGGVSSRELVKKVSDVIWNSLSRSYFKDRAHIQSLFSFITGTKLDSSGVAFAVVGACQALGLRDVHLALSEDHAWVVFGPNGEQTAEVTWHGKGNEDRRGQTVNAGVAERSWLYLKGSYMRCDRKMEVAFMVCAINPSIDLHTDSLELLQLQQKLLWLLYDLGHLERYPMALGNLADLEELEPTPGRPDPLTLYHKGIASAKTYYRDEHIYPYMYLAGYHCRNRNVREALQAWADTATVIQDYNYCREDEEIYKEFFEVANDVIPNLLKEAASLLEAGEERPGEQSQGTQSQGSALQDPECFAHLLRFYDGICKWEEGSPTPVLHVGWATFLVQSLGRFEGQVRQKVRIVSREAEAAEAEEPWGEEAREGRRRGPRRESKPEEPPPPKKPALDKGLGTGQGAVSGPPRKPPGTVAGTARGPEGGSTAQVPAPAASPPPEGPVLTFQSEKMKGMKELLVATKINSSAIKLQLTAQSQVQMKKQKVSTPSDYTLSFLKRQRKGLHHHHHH
# Procedure: 3) Menin/MLL Homogenous Time-Resolved Fluorescence (HTRF) Assay
# To an untreated, white 384-well microtiter plate was added 40 nL 200× test compound in DMSO and 4 μL 2× terbium chelate-labeled menin (vide infra for preparation) in assay buffer (40 mM Tris-HCl, pH 7.5, 50 mM NaCl, 1 mM DTT and 0.05% Pluronic F-127). After incubation of test compound and terbium chelate-labeled menin for 5 min at ambient temperature, 4 μL 2×FITC-MBM1 peptide (FITC-β-alanine-SARWRFPARPGT-NH2) in assay buffer was added, the microtiter plate centrifuged at 1000 rpm for 1 min and the assay mixtures incubated for 15 min at ambient temperature. The relative amount of menin⋅FITC-MBM1 complex present in an assay mixture is determined by measuring the homogenous time-resolved fluorescence (HTRF) of the terbium/FITC donor/acceptor fluorophore pair using a BMG Pherastar plate reader (ex. 337 nm/terbium em. 490 nm/FITC em. 520 nm) at ambient temperature. The degree of fluorescence resonance energy transfer (the HTRF value) is expressed as the ratio of the fluorescence emission intensities of the FITC and terbium fluorophores (F^em 520 nm/F^em 490 nm). The final concentrations of reagents in the binding assay are 100 pM terbium chelate-labeled menin, 75 nM FITC-MBM1 peptide and 0.5% DMSO in assay buffer. Dose-response titrations of test compounds are conducted using an 11 point, three-fold serial dilution scheme, starting at 31 μM.
# Compound potencies were determined by first calculating % inhibition at each compound concentration according to equation 1: % inhibition=((HC−LC)−(HTRF^compound−LC))/(HC−LC))*100 (Eqn 1)
# Where LC and HC are the HTRF values of the assay in the presence or absence of a saturating concentration of a compound that competes with FITC-MBM1 for binding to menin, and HTRF^compound is the measured HTRF value in the presence of the test compound. HC and LC HTRF values represent an average of at least 16 replicates per plate.
# Where Bottom and Top are the lower and upper asymptotes of the dose-response curve, respectively, IC50 is the concentration of compound that yields 50% inhibition of signal and h is the Hill coefficient.
# Preparation of Terbium cryptate labeling of Menin: Menin (a.a. 1-610-6×his tag) was labeled with terbium cryptate as follows. 2 mg of Menin was buffer exchanged into 1× phosphate buffered saline. 16 uM Menin was incubated with 4-fold molar excess NHS-terbium cryptate (Cisbio Bioassays, Bedford, Mass.) for 2 hours at room temperature. The labeled protein was purified away from free label by running the reaction over a Superdex 200 Increase 10/300 GL column at 0.75 ml/min. Peak fractions were collected, aliquoted and frozen at −80° C.
SMILES,IC50 (MV-4-11) [nM],IC50 [1] [nM]
"FC(F)(F)Cc1cc2c(N3C[C@H]4CCN(Cc5cncc(Cl)c5)C[C@H]4C3)ncnc2s1 (single isomer, unassigned) [Compound 43]",1300,97
"CCOc1ccc(CN2CC[C@@H]3CN(c4ncnc5sc(CC(F)(F)F)cc45)C[C@@H]3C2)cn1 (single isomer, unassigned) [Compound 103]",1100,106
"CC(C)(C)CC(=O)N1CCC(CN2CC[C@@H]3CN(c4ncnc5sc(CC(F)(F)F)cc45)C[C@@H]3C2)CC1 (single isomer, unassigned) [Compound 93]",580,20
"FC(F)(F)Cc1cc2c(N3C[C@H]4CCN(Cc5ccc(Cl)nc5Cl)C[C@H]4C3)ncnc2s1 (single isomer, unassigned) [Compound 62]",2200,36
"COc1cncc(CN2CC[C@@H]3CN(c4ncnc5sc(CC(F)(F)F)cc45)C[C@@H]3C2)c1 (single isomer, unassigned) [Compound 46]",1500,105
"OC1(CN2CC[C@@H]3CN(c4ncnc5sc(CC(F)(F)F)cc45)C[C@@H]3C2)CCOCC1 (single isomer, unassigned) [Compound 86]",6600,198
"Fc1cncc(CN2CC[C@@H]3CN(c4ncnc5sc(CC(F)(F)F)cc45)C[C@@H]3C2)c1 (single isomer, unassigned) [Compound 38]",2300,208
"CNc1ccc(CN2CC[C@@H]3CN(c4ncnc5sc(CC(F)(F)F)cc45)C[C@@H]3C2)cn1 (single isomer, unassigned) [Compound 106]",190,10
"FC(F)(F)Cc1cc2c(N3C[C@H]4CCN(Cc5ccc(C6CC6)nc5)C[C@H]4C3)ncnc2s1 (single isomer, unassigned) [Compound 89]",240,24
"Cn1cncc1CN1CC[C@@H]2CN(c3ncnc4sc(CC(F)(F)F)cc34)C[C@@H]2C1 (single isomer, unassigned) [Compound 54]",2100,97
"FC(F)(F)Cc1cc2c(N3C[C@H]4CCN(Cc5ccnc(Cl)c5)C[C@H]4C3)ncnc2s1 (single isomer, unassigned) [Compound 65]",1200,56
"Nc1ccc(CN2CC[C@@H]3CN(c4ncnc5sc(CC(F)(F)F)cc45)C[C@@H]3C2)cn1 (single isomer, unassigned) [Compound 105]",220,11
"COc1ccncc1CN1CC[C@@H]2CN(c3ncnc4sc(CC(F)(F)F)cc34)C[C@@H]2C1 (single isomer, unassigned) [Compound 61]",1700,146
"FC(F)(F)Cc1cc2c(N3C[C@H]4CCN(Cc5ccnnc5)C[C@H]4C3)ncnc2s1 (single isomer, unassigned) [Compound 55]",3300,75
"O=C(c1ccccc1)N1CCC(CN2CC[C@@H]3CN(c4ncnc5sc(CC(F)(F)F)cc45)C[C@@H]3C2)CC1 (single isomer, unassigned) [Compound 94]",430,18
"OCCn1cc(CN2CC[C@@H]3CN(c4ncnc5sc(CC(F)(F)F)cc45)C[C@@H]3C2)cn1 (single isomer, unassigned) [Compound 75]",1000,28
"FC(F)(F)Cc1cc2c(N3C[C@H]4CCN(Cc5cccnc5)C[C@H]4C3)ncnc2s1 (single isomer, unassigned) [Compound 56]",1400,41
"O=C(C1COC1)N1CCC(CN2CC[C@@H]3CN(c4ncnc5sc(CC(F)(F)F)cc45)C[C@@H]3C2)CC1 (single isomer, unassigned) [Compound 95]",2100,69
"FC(F)(F)Cc1cc2c(N3C[C@H]4CCN(CCC5CCOCC5)C[C@H]4C3)ncnc2s1 (single isomer, unassigned) [Compound 59]",1800,212
